Key:
SNB-75 = experiment: Growth inhibition of human SNB-75 cells at 10 uM relative to control; assay type: functional; settings: read-out: GI
HOP-62 = experiment: Growth inhibition of human HOP-62 cells at 10 uM relative to control; assay type: functional; settings: read-out: GI
ACHN = experiment: Growth inhibition of human ACHN cells at 10 uM relative to control; assay type: functional; settings: read-out: GI
A549 = experiment: Growth inhibition of human A549 cells at 10 uM relative to control; assay type: functional; settings: read-out: GI
UACC-257 = experiment: Growth inhibition of human UACC-257 cells at 10 uM relative to control; assay type: functional; settings: read-out: GI
T47D = experiment: Growth inhibition of human T47D cells at 10 uM relative to control; assay type: functional; settings: read-out: GI
SW-620 = experiment: Growth inhibition of human SW-620 cells at 10 uM relative to control; assay type: functional; settings: read-out: GI
SF-539 = experiment: Growth inhibition of human SF-539 cells at 10 uM relative to control; assay type: functional; settings: read-out: GI
COLO 205 = experiment: Growth inhibition of human COLO 205 cells at 10 uM relative to control; assay type: functional; settings: read-out: GI
OVCAR-4 = experiment: Growth inhibition of human OVCAR-4 cells at 10 uM relative to control; assay type: functional; settings: read-out: GI
SF-295 = experiment: Growth inhibition of human SF-295 cells at 10 uM relative to control; assay type: functional; settings: read-out: GI
BT-549 = experiment: Growth inhibition of human BT-549 cells at 10 uM relative to control; assay type: functional; settings: read-out: GI
CCRF-CEM = experiment: Growth inhibition of human CCRF-CEM cells at 10 uM relative to control; assay type: functional; settings: read-out: GI
DU-145 = experiment: Growth inhibition of human DU-145 cells at 10 uM relative to control; assay type: functional; settings: read-out: GI
SK-OV-3 = experiment: Growth inhibition of human SK-OV-3 cells at 10 uM relative to control; assay type: functional; settings: read-out: GI
SF-268 = experiment: Growth inhibition of human SF-268 cells at 10 uM relative to control; assay type: functional; settings: read-out: GI
UO-31 = experiment: Growth inhibition of human UO-31 cells at 10 uM relative to control; assay type: functional; settings: read-out: GI
A498 = experiment: Growth inhibition of human A498 cells at 10 uM relative to control; assay type: functional; settings: read-out: GI
RXF 393 = experiment: Growth inhibition of human RXF 393 cells at 10 uM relative to control; assay type: functional; settings: read-out: GI
CAKI-1 = experiment: Growth inhibition of human CAKI-1 cells at 10 uM relative to control; assay type: functional; settings: read-out: GI
NCI-H322M = experiment: Growth inhibition of human NCI-H322M cells at 10 uM relative to control; assay type: functional; settings: read-out: GI
HOP-92 = experiment: Growth inhibition of human HOP-92 cells at 10 uM relative to control; assay type: functional; settings: read-out: GI
Hs-578T = experiment: Growth inhibition of human Hs-578T cells at 10 uM relative to control; assay type: functional; settings: read-out: GI
Malme-3M = experiment: Growth inhibition of human Malme-3M cells at 10 uM relative to control; assay type: functional; settings: read-out: GI
SN12C = experiment: Growth inhibition of human SN12C cells at 10 uM relative to control; assay type: functional; settings: read-out: GI
HL-60(TB) = experiment: Growth inhibition of human HL-60(TB) cells at 10 uM relative to control; assay type: functional; settings: read-out: GI
TK-10 = experiment: Growth inhibition of human TK-10 cells at 10 uM relative to control; assay type: functional; settings: read-out: GI
HCT-15 = experiment: Growth inhibition of human HCT-15 cells at 10 uM relative to control; assay type: functional; settings: read-out: GI
NCI-H460 = experiment: Growth inhibition of human NCI-H460 cells at 10 uM relative to control; assay type: functional; settings: read-out: GI
HCT-116 = experiment: Growth inhibition of human HCT-116 cells at 10 uM relative to control; assay type: functional; settings: read-out: GI
MDA-MB-468 = experiment: Growth inhibition of human MDA-MB-468 cells at 10 uM relative to control; assay type: functional; settings: read-out: GI
SK-MEL-28 = experiment: Growth inhibition of human SK-MEL-28 cells at 10 uM relative to control; assay type: functional; settings: read-out: GI
OVCAR-8 = experiment: Growth inhibition of human OVCAR-8 cells at 10 uM relative to control; assay type: functional; settings: read-out: GI
786-0 = experiment: Growth inhibition of human 786-0 cells at 10 uM relative to control; assay type: functional; settings: read-out: GI
M14 = experiment: Growth inhibition of human M14 cells at 10 uM relative to control; assay type: functional; settings: read-out: GI
MDA-MB-231 = experiment: Growth inhibition of human MDA-MB-231 cells at 10 uM relative to control; assay type: functional; settings: read-out: GI
SNB-19 = experiment: Growth inhibition of human SNB-19 cells at 10 uM relative to control; assay type: functional; settings: read-out: GI
MOLT-4 = experiment: Growth inhibition of human MOLT-4 cells at 10 uM relative to control; assay type: functional; settings: read-out: GI
DNA = experiment: Displacement of methyl green from DNA (unknown origin) assessed as DNA intercalation after 24 hrs by colorimetric assay; assay type: nucleic-acid assay
OVCAR-5 = experiment: Growth inhibition of human OVCAR-5 cells at 10 uM relative to control; assay type: functional; settings: read-out: GI
SK-MEL-5 = experiment: Growth inhibition of human SK-MEL-5 cells at 10 uM relative to control; assay type: functional; settings: read-out: GI
PC-3 = experiment: Growth inhibition of human PC-3 cells at 10 uM relative to control; assay type: functional; settings: read-out: GI
SK-MEL-2 = experiment: Growth inhibition of human SK-MEL-2 cells at 10 uM relative to control; assay type: functional; settings: read-out: GI
IGROV-1 = experiment: Growth inhibition of human IGROV-1 cells at 10 uM relative to control; assay type: functional; settings: read-out: GI
MCF7 = experiment: Growth inhibition of human MCF7 cells at 10 uM relative to control; assay type: functional; settings: read-out: GI
HCC 2998 = experiment: Growth inhibition of human HCC 2998 cells at 10 uM relative to control; assay type: functional; settings: read-out: GI
KM12 = experiment: Growth inhibition of human KM12 cells at 10 uM relative to control; assay type: functional; settings: read-out: GI
HT-29 = experiment: Growth inhibition of human HT-29 cells at 10 uM relative to control; assay type: functional; settings: read-out: GI
SR = experiment: Growth inhibition of human SR cells at 10 uM relative to control; assay type: functional; settings: read-out: GI
UACC-62 = experiment: Growth inhibition of human UACC-62 cells at 10 uM relative to control; assay type: functional; settings: read-out: GI
NCI-H522 = experiment: Growth inhibition of human NCI-H522 cells at 10 uM relative to control; assay type: functional; settings: read-out: GI
NCI-H23 = experiment: Growth inhibition of human NCI-H23 cells at 10 uM relative to control; assay type: functional; settings: read-out: GI
MDA-MB-435 = experiment: Growth inhibition of human MDA-MB-435 cells at 10 uM relative to control; assay type: functional; settings: read-out: GI
LOX IMVI = experiment: Growth inhibition of human LOX IMVI cells at 10 uM relative to control; assay type: functional; settings: read-out: GI
U-251 = experiment: Growth inhibition of human U-251 cells at 10 uM relative to control; assay type: functional; settings: read-out: GI
NCI/ADR-RES = experiment: Growth inhibition of human NCI/ADR-RES cells at 10 uM relative to control; assay type: functional; settings: read-out: GI
NCI-H226 = experiment: Growth inhibition of human NCI-H226 cells at 10 uM relative to control; assay type: functional; settings: read-out: GI
K562 = experiment: Growth inhibition of human K562 cells at 10 uM relative to control; assay type: functional; settings: read-out: GI
RPMI-8226 = experiment: Growth inhibition of human RPMI-8226 cells at 10 uM relative to control; assay type: functional; settings: read-out: GI

C1=CN2C(=NC(/C=C/c3cccs3)=CC2c2cccs2)S1 (centres undefined)
12.3%: inhibition of growth at 10 µM (SNB-75)
< 10%: inhibition of growth at 10 µM (HOP-62) | inhibition of growth at 10 µM (ACHN) | inhibition of growth at 10 µM (A549) | inhibition of growth at 10 µM (UACC-257) | inhibition of growth at 10 µM (T47D) | inhibition of growth at 10 µM (SW-620) | inhibition of growth at 10 µM (SF-539) | inhibition of growth at 10 µM (COLO 205) | inhibition of growth at 10 µM (OVCAR-4) | inhibition of growth at 10 µM (SF-295) | inhibition of growth at 10 µM (BT-549) | inhibition of growth at 10 µM (CCRF-CEM) | inhibition of growth at 10 µM (DU-145) | inhibition of growth at 10 µM (SK-OV-3) | inhibition of growth at 10 µM (SF-268) | inhibition of growth at 10 µM (UO-31) | inhibition of growth at 10 µM (A498) | inhibition of growth at 10 µM (RXF 393) | inhibition of growth at 10 µM (CAKI-1) | inhibition of growth at 10 µM (NCI-H322M) | inhibition of growth at 10 µM (HOP-92) | inhibition of growth at 10 µM (Hs-578T) | inhibition of growth at 10 µM (Malme-3M) | inhibition of growth at 10 µM (SN12C) | inhibition of growth at 10 µM (HL-60(TB)) | inhibition of growth at 10 µM (TK-10) | inhibition of growth at 10 µM (HCT-15) | inhibition of growth at 10 µM (NCI-H460) | inhibition of growth at 10 µM (HCT-116) | inhibition of growth at 10 µM (MDA-MB-468) | inhibition of growth at 10 µM (SK-MEL-28) | inhibition of growth at 10 µM (OVCAR-8) | inhibition of growth at 10 µM (786-0) | inhibition of growth at 10 µM (M14) | inhibition of growth at 10 µM (MDA-MB-231) | inhibition of growth at 10 µM (SNB-19) | inhibition of growth at 10 µM (MOLT-4) | inhibition of growth at 10 µM (OVCAR-5) | inhibition of growth at 10 µM (SK-MEL-5) | inhibition of growth at 10 µM (PC-3) | inhibition of growth at 10 µM (SK-MEL-2) | inhibition of growth at 10 µM (IGROV-1) | inhibition of growth at 10 µM (MCF7) | inhibition of growth at 10 µM (HCC 2998) | inhibition of growth at 10 µM (KM12) | inhibition of growth at 10 µM (HT-29) | inhibition of growth at 10 µM (SR) | inhibition of growth at 10 µM (UACC-62) | inhibition of growth at 10 µM (NCI-H522) | inhibition of growth at 10 µM (NCI-H23) | inhibition of growth at 10 µM (MDA-MB-435) | inhibition of growth at 10 µM (LOX IMVI) | inhibition of growth at 10 µM (U-251) | inhibition of growth at 10 µM (NCI/ADR-RES) | inhibition of growth at 10 µM (NCI-H226) | inhibition of growth at 10 µM (K562) | inhibition of growth at 10 µM (RPMI-8226)
33.67 µg/mL: IC50 (DNA)
